Reference: US9101160B2, “Condiments with high-potency sweetener” (The Coca-Cola Company, priority 2005, dated 2015)

Assay type: physicochemical
Protocol: A solution of rebaudioside A ( >97% pure by HPLC ) was prepared in double distilled water (12.5 gm in 50 mL, 25% concentration) by stirring the mixture at 40° C. for 5 minutes. An amorphous form of rebaudioside A was formed by immediately using the clear solution for spray drying with the Lab-Plant spray drier SD-04 instrument (Lab-Plant Ltd., West Yorkshire, U.K.). The solution was fed through the feed pump into the nozzle atomizer which atomized it into a spray of droplets with the help of a constant flow of nitrogen/air. […] This dry powder (11-12 g, H2O 6.74%) was discharged continuously from the drying chamber and was collected in a bottle.

rebaudioside A [Form 4]
solubility in water at room temperature: > 35.0%
